Data from patent US7727740B1, “Methods for determining whether a chemical agent modulates enzymatic activity of an L-2-hydroxy acid oxidase” (Merck Sharp & Dohme Corp., priority 2005, dated 2010).

Experiments:
Test in all cases: Km determination of hydroxy acid oxidase activity (DCIP-coupled)
Type in all cases: biochemical
mouse Hao3 = target: T1, mouse Hao3 (Mus musculus, UniProt Q9NYQ2, S203T); settings: mouse Hao3 enzyme activity against the substrate; FIG. 1C
T1 construct: made in house; host or cells: E. coli BL21-codonplus-RIPL
T1 sequence (Q9NYQ2 1-353 S203T): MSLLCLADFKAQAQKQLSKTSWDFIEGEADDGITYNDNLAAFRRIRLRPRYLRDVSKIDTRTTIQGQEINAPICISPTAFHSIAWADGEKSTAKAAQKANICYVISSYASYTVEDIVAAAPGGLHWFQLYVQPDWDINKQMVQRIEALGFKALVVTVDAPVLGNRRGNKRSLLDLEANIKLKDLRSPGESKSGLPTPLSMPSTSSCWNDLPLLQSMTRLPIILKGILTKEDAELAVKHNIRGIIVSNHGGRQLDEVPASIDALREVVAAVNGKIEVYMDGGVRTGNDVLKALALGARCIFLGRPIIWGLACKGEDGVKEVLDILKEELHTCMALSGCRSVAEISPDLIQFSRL
Protocol: (§1) The hydroxyl acid oxidase activity of the Hao enzymes was assayed for oxidation of the enzyme substrate 2-hydroxyoctanoate by monitoring the coupled reduction of 2,6-dichloroindophenol (DCIP) at 605 nm.
(§2) In order to determine the Km of the enzyme for a given substrate, 20 μl/well of various concentrations of the substrate 2-hydroxyoctanoate were diluted in the assay buffer (100 mM Kpi, 1 mM EDTA and 0.1% BSA) and 175 μl/well of 50 μM 2-6-dichloroindophenol (DCIP) diluted in the same assay buffer was added to a 96-well plate. The reaction was started by the addition of 5 μl/well of the Hao enzyme, and the change in A605 at room temperature (18° C.) was measured over time. An extinction coefficient of […] for DCIP at 605 nm may be used for all calculations. One unit of activity may be defined as the reduction of 1 μmol of DCIP in 1 min (see Jones, J. M., et al., J. Biol. Chem. 275:12590-12597, 2000).

rat Hao2 = target: T2, rat Hao2 (Rattus norvegicus, UniProt Q07523); settings: rat Hao2 enzyme activity against the substrate; FIG. 1B
T2 sequence (Q07523 1-353): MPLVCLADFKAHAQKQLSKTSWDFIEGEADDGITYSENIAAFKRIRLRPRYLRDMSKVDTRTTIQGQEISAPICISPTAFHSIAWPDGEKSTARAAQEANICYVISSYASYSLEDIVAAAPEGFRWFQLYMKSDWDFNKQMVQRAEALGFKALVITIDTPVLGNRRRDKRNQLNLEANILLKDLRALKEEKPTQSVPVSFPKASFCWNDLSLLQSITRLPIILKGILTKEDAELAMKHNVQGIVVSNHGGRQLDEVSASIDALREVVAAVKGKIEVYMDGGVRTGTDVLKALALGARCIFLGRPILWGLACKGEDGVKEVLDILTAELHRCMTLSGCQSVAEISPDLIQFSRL
Protocol: as §1, §2

human Hao2 = target: T3, human Hao2 (Homo sapiens, UniProt Q9NYQ3); settings: human Hao2 enzyme activity against the substrate; FIG. 1A
T3 construct: made in house; host or cells: E. coli BL21-codonplus-RIPL
T3 sequence (Q9NYQ3 1-351): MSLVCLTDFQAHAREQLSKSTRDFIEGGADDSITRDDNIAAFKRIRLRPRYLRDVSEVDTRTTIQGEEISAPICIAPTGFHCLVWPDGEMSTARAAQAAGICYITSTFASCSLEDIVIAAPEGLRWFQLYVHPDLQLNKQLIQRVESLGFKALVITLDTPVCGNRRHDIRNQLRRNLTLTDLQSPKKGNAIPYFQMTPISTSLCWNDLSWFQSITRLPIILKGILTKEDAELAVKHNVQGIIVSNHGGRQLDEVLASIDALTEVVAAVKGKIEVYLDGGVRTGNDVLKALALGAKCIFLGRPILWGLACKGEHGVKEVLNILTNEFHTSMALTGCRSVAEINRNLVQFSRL
Protocol: as §1, §2

CCCCCCC(O)C(=O)O (stereo not drawn) [2-hydroxyoctanoate]
Km (mouse Hao3): 76 µM
Km (rat Hao2): 43 µM
Km (human Hao2): 735 µM
